Results reported in patent US7932281B2, “Amine-based compound and use thereof” (Kureha Corporation, priority 2004, dated 2011).

Columns and labels:
[1] = system: HIV-1IIIB infected MT-4 cells; experiment: Anti-HIV activity, HIV-1IIIB infected MT-4 cells, MTT method (Test Example 1); assay type: cell-based; details: Human immunodeficiency virus 1, MT4, 120 h, concentration required for inhibition of cell disorder due to HIV infection by 50%, MOI 0.01, 5 days
Experimental: Immediately after infection, HIV-1IIIB infected MT-4 cells (3.0×10^4/well, MOI (Multiplicity of infection): 0.01) were added to a 96-well microtiter plate together with the test compounds having different concentrations. The cells were cultured in a carbon dioxide incubator at 37° C. for 5 days, and the number of living cells was measured in accordance with the MTT (tetrazolium) method ([…], et al., J. of Virol. Method, 20, 309-321 […]). The antiviral activity is represented by the concentration required for inhibition of cell disorder due to HIV infection by 50% (EC50: 50% Effective Concentration) (μM), and the results are shown in Table 2.

[2] = target: T1, CXCR4 (Homo sapiens, UniProt P61073); experiment: Inhibition of 125I-SDF-1α binding to receptors CXCR4 on MT-4 cells (Test Example 2); details: binding-inhibition % at 0.01 μM, 2 hours under ice-cooling, read-out: Inhibition rate (%)
T1 construct: endogenous in cells; host or cells: MT-4 cells
Experimental: MT-4 cells (5×10^6/0.2 ml/well) were cultured on a 24-well microtiter plate. After the cells were incubated for 24 hours at 37° C. in a carbon dioxide gas incubator, a culture medium was replaced with a buffer solution (0.1% BSA-containing RPMI-1640). Together with a ligand ^125I-SDF-1α (specific activity: 2,200 Ci/mmol; available from Daiichi Pure Chemicals Co., Ltd. (Tokyo)), test materials with various concentrations were subjected to a binding reaction for 2 hours under ice-cooling. […] Then, a rate of inhibition of the binding between radioactive ligands and receptors CXCR4 by a test material was calculated (a binding-inhibition % at 0.01 μM).

[3] = system: SD mice; experiment: Acute toxicity, single transvenous administration (Test Example 3); assay type: in vivo; details: 6-week-old male SD mice, 2.5 mg/kg transvenously once in physiological saline
Experimental: The aforementioned compound was examined for acute toxicity. Specifically, 6-week-old SD mice (male) were divided into several groups (2 to 3 mice in each group). Subsequently, each of the compounds of Examples was dissolved in a physiological saline solution, and the solution was transvenously administered to the mice (dose: 2.5 mg/kg) once. Then, the number of dead mice was counted.

T1 sequence (P61073 whole entry): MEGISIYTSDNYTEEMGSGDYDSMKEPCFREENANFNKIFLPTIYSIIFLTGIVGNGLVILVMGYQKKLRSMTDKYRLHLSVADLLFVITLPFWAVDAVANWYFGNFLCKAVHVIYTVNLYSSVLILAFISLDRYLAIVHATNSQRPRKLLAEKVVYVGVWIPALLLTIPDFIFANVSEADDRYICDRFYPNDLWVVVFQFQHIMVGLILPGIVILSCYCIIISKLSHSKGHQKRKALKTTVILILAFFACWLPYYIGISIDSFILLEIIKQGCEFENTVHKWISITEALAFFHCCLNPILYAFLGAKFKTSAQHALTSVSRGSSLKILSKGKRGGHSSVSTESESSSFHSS

| Compound | EC50 [1] [nM] | inhibition at 0.01 µM [2] [%] | Dead mice/test mice [3] |
| --- | --- | --- | --- |
| CCCN(CCC)CCCCN(CCO)Cc1ccc(CN(Cc2ncc[nH]2)Cc2nccn2C)cc1 [Compound No. 1, 2-[(4-dipropylamino-butyl)-(4-{[(1H-imidazol-2-ylmethyl)-(1-methyl-1H-imidazol-2-ylmethyl)-amino]-methyl}-benzyl)-amino]-ethanol] | 3 | 87.9 | 0/3 |
| CCCN(CCC)CCCCc1nc2ccc(CN(Cc3ncc[nH]3)Cc3ncc[nH]3)cc2n1CCC [Compound No. 3, [4-(6-{[bis-(1H-imidazol-2-ylmethyl)-amino]-methyl}-1-propyl-1H-benzimidazol-2-yl)-butyl]-dipropyl-amine] | 3 | 71.4 | 0/3 |
| CCCN(CCC)CCCCc1nc2ccc(CN(Cc3ncc[nH]3)Cc3nccn3C)cc2n1CCC [Compound No. 4, [4-(6-{[(1H-imidazol-2-ylmethyl)-(1-methyl-1H-imidazol-2-ylmethyl)-amino]-methyl}-1-propyl-1H-benzimidazol-2-yl)-butyl]-dipropyl-amine] | 3 | 94.9 | 0/3 |
| CCCN(CCC)CCCCc1nc2cc(CN(Cc3ncc[nH]3)Cc3nccn3C)ccc2n1CCC [Compound No. 5, [4-(5-{[(1H-imidazol-2-ylmethyl)-(1-methyl-1H-imidazol-2-ylmethyl)-amino]-methyl}-1-propyl-1H-benzimidazol-2-yl)-butyl]-dipropyl-amine] | 9 | 67 | 0/3 |
| CCCN(CCC)CCCCN(C)Cc1ccc(CNCc2nccn2Cc2nccn2C)cc1 [Compound No. 10] | 9 | 20.4 | 0/3 |
| CCCN(CCC)CCCCc1nc2ccc(CN(Cc3ncc[nH]3)Cc3nccn3C)cc2n1C [Compound No. 13, [4-(6-{[(1H-imidazol-2-ylmethyl)-(1-methyl-1H-imidazol-2-ylmethyl)-amino]-methyl}-1-methyl-1H-benzimidazol-2-yl)-butyl]-dipropyl-amine] | 3 | 75.5 | 0/3 |
| CCCN(CCC)CCCC1NC(=O)c2ccc(CN(Cc3ncc[nH]3)Cc3nccn3C)cc2NC1=O (stereo not shown) [Compound No. 14, 3-(3-dipropylaminopropyl)-8-{[(1H-imidazol-2-ylmethyl)-(1-methyl-1H-imidazol-2-ylmethyl)-amino]-methyl}-3,4-dihydro-1H-benzo[e][1,4]diazepin-2,5-dione] | 6 | 32.9 | 0/3 |
| CCCN(CCC)Cc1ccc(NC(=O)c2ccc(CN(Cc3ncc(C)cc3C)Cc3nccn3C)cc2)cc1 [Compound No. 15, 4-{[(3,5-dimethyl-pyridin-2-ylmethyl)-(1-methyl-1H-imidazol-2-ylmethyl)-amino]-methyl}-N-(4-dipropylaminomethyl-phenyl)-benzamide] | 6 | 74 | 0/3 |
| CCCN(CCC)Cc1ccc(NC(=O)c2ccc(CN(Cc3ccc(CC)cn3)Cc3nccn3C)cc2)cc1 [Compound No. 16, 4-{[(5-ethyl-pyridin-2-ylmethyl)-(1-methyl-1H-imidazol-2-ylmethyl)-amino]-methyl}-N-(4-dipropylaminomethyl-phenyl)-benzamide] | 3 | 46.9 | 0/3 |
| CCCN(CCC)CCCCN1CCc2cc(CN(Cc3ncc[nH]3)Cc3nccn3C)ccc2C1 [Compound No. 17, [4-(6-{[(1H-imidazol-2-ylmethyl)-(1-methyl-1H-imidazol-2-ylmethyl)-amino]-methyl}-3,4-dihydro-1H-isoquinolin-2-yl)-butyl]-dipropyl-amine] | 3 | 93.5 | 0/3 |
| CCCN(CCC)CCCCNC(=O)c1ccc(CN(Cc2ccc(C)cn2)Cc2nccn2C)cc1 [Compound No. 20, N-(4-dipropylamino-butyl)-4-{[(1-methyl-1H-imidazol-2-ylmethyl)-(5-methyl-pyridin-2-ylmethyl)-amino]-methyl}-benzamide] | 4 | 73.2 | 0/3 |
| CCCN(CCC)CCCCN(Cc1ccc(CN(Cc2ncc[nH]2)Cc2nccn2C)cc1)S(C)(=O)=O [Compound No. 21, N-(4-dipropylamino-butyl)-N-(4-{[(1H-imidazol-2-ylmethyl)-(1-methyl-1H-imidazol-2-ylmethyl)-amino]-methyl}-benzyl)-methanesulfonamide] | 46 | 59.2 | 0/3 |
| CCCN(CCC)CCCCN(Cc1ccc(CN(Cc2ncc[nH]2)Cc2nccn2C)cc1)S(=O)(=O)c1ccc(C)cc1 [Compound No. 22, N-(4-dipropylamino-butyl)-N-(4-{[(1H-imidazol-2-ylmethyl)-(1-methyl-1H-imidazol-2-ylmethyl)-amino]-methyl}-benzyl)-4-methyl-benzenesulfonamide] | 106 | 84.3 | 0/3 |
| CCCN(CCC)CCCCN(CC)Cc1ccc(CN(Cc2ncc[nH]2)Cc2nccn2C)cc1 [Compound No. 23, N-ethyl-N-(4-{[(1H-imidazol-2-ylmethyl)-(1-methyl-1H-imidazol-2-ylmethyl)-amino]-methyl}-benzyl)-N′,N′-dipropyl-butane-1,4-diamine] | 3 | 78.2 | 0/3 |
| CCCN(CCC)CCOCCN(C)Cc1ccc(CN(Cc2ncc[nH]2)Cc2nccn2C)cc1 [Compound No. 109, (2-{2-[(4-{[(1H-imidazol-2-ylmethyl)-(1-methyl-1H-imidazol-2-ylmethyl)-amino]-methyl}-benzyl)-methyl-amino]-ethoxy}-ethyl)-dipropyl-amine] | 4 | 94.3 |  |
| CCCN(CCC)CCCCN(Cc1ccc(CN(Cc2ncc[nH]2)Cc2nccn2C)cc1)Cc1nnn[nH]1 [Compound No. 110, N-(4-{[(1H-imidazol-2-ylmethyl)-(1-methyl-1H-imidazol-2-ylmethyl)-amino]-methyl}-benzyl)-N′,N′-dipropyl-N-(1H-tetrazol-5-ylmethyl)-butane-1,4-diamine] | 4 | 71.4 |  |
| CCCN(CCC)CCCCN(C)C(C(=O)OCC)c1ccc(CN(Cc2ncc[nH]2)Cc2nccn2C)cc1 (stereo not shown) [Compound No. 119, [(4-dipropylamino-butyl)-methyl-amino]-(4-{[(1H-imidazol-2-ylmethyl)-(1-methyl-1H-imidazol-2-ylmethyl)-amino]-methyl}-phenyl)-acetic acid ethyl ester] | 4 | 72.7 |  |
| CCCN(CCC)CCCCN(C)C(C(=O)O)c1ccc(CN(Cc2ncc[nH]2)Cc2nccn2C)cc1 (stereo not shown) [Compound No. 120, [(4-dipropylamino-butyl)-methyl-amino]-(4-{[(1H-imidazol-2-ylmethyl)-(1-methyl-1H-imidazol-2-ylmethyl)-amino]-methyl}-phenyl)-acetic acid] | 4 | 79.7 |  |
| CCCN(CCC)CCCCN(C)Cc1ccc(CN(Cc2ncc[nH]2)Cc2nccn2C)cc1C(=O)O [Compound No. 122, 2-{[(4-dipropylamino-butyl)-methyl-amino]-methyl}-5-{[(1H-imidazol-2-ylmethyl)-(1-methyl-1H-imidazol-2-ylmethyl)-amino]-methyl}-benzoic acid] | 4 | 71.3 |  |
